The record followed here is ChEMBL document CHEMBL1151169, “New beta-caryophyllene-derived terpenoids from the soft coral Sinularia nanolobata” (2004).

Common to all, as to format: functional
A short description of assay [1]: Cytotoxicity against human HEPA 59T/VGH cells by MTT assay. The following applies: read-out: ED50 (the source's name). On the technique in general: Formazan colour is commonly taken as a measure of viable cells.
In the next assay the test system is KB. Kind of assay: Cytotoxicity against human KB cells by MTT assay. The conditions noted are these: read-out: ED50 (the source's name).
A further assay deals with NCI-H661. Nature of the assay: Cytotoxicity against human NCI-H661 cells by MTT assay. The conditions noted are these: read-out: ED50 (the source's name).
A short description of assay [2]: Cytotoxicity against human Medulloblastoma cells by MTT assay. The conditions noted are these: Medulloblastoma cell, read-out: ED50 (the source's name).
A further assay deals with DLD-1. Nature of the assay: Cytotoxicity against human DLD1 cells by MTT assay. The following applies: read-out: ED50 (the source's name).
Another assay deals with HeLa. Nature of the assay: Cytotoxicity against human HeLa cells by MTT assay. The following applies: read-out: ED50 (the source's name).

In brackets after ≈: the same amount, converted by molar mass.

Turning to `COc1cccc2c1C(=O)c1c(O)c3c(c(O)c1C2=O)C[C@@](O)(C(=O)CO)C[C@@H]3O[C@H]1C[C@H](N)[C@H](O)[C@H](C)O1` [DOXORUBICIN], the EC50 is 0.47 µg/mL (≈ 0.865 µM) in assay [1]; 0.25 µg/mL (≈ 0.46 µM) in the assay with KB; 0.29 µg/mL (≈ 0.534 µM) in the assay with NCI-H661; 0.41 µg/mL (≈ 0.754 µM) in assay [2]; 0.57 µg/mL (≈ 1.05 µM) in the assay on DLD-1; 0.22 µg/mL (≈ 0.405 µM) with HeLa.
